Laboratory results as given in publication PMC9090415, “Discovery of small molecule inhibitors of Plasmodium falciparum apicoplast DNA polymerase” (Journal of Enzyme Inhibition and Medicinal Chemistry, 2022).

Target: P. falciparum apicoplast DNA polymerase (Pf-apPOL) (Plasmodium falciparum, UniProt Q8ILY1)
Experiment: Fluorescence-based high-throughput DNA polymerase assay (molecular beacon), primary screen and dose-response;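 for % inhibition ApPOL 90': test concentration in µM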;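 for % inhibition apPOL 180': test concentration in µM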
Assay type: biochemical
In short: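 Single-point screening used 10 µM compound with 20 nM polymerase, 20 nM hairpin substrate and 6 µM dNTPs for 90 min at 25 °C. Confirmatory titrations (2.5–80 µM) followed fluorescence at three times, and IC50 was derived from a fit including a cooperativity term n.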

Chain of P. falciparum apicoplast DNA polymerase (Pf-apPOL) (Q8ILY1 entry or part of it): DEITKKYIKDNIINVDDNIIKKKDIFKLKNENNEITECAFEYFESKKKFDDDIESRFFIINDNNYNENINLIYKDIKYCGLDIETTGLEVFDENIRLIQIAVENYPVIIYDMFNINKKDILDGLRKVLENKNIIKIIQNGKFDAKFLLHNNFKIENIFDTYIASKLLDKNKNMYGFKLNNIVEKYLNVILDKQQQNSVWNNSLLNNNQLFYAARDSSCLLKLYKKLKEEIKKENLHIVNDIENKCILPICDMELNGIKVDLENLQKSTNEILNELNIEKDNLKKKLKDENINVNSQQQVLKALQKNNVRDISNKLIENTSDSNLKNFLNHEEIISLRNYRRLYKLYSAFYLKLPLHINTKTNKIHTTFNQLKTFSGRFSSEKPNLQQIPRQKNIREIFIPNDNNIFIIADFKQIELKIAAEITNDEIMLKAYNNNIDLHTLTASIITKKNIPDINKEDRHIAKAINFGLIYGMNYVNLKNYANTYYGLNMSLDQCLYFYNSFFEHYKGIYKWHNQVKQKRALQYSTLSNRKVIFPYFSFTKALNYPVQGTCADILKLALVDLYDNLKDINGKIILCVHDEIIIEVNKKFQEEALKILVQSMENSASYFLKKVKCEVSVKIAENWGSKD

## Cn1nc(C(=O)N2CCc3c(nc4cc(-c5ccccc5)[nH]n4c3=O)C2)c2ccccc21 [Molecule 18, O=c1c2CCN(Cc2nc2n1[nH]c(c2)c1ccccc1)C(=O)c1nn(c2c1cccc2)C]
186 hits, value of the hit list (primary screen); unit not given; 90 min, 10 µM
  DNA Pol: 46
DRC-1; 10'; concentration 2.5
  % inhibition Apo pol 10': 9%
DRC-1; 10'; concentration 5
  % inhibition Apo pol 10': 28%
DRC-1; 10'; concentration 10
  % inhibition Apo pol 10': 66%
DRC-1; 10'; concentration 20
  % inhibition Apo pol 10': 74%
DRC-1; 10'; concentration 40
  % inhibition Apo pol 10': 72%
DRC-1; 10'; concentration 80
  % inhibition Apo pol 10': 55%
DRC-1; 90'; concentration 2.5
  % inhibition Apol 90': 1.64%
DRC-1; 90'; concentration 5
  % inhibition Apol 90': 16%
DRC-1; 90'; concentration 10
  % inhibition Apol 90': 49%
DRC-1; 90'; concentration 20
  % inhibition Apol 90': 59%
DRC-1; 90'; concentration 40
  % inhibition Apol 90': 58%
DRC-1; 90'; concentration 80
  % inhibition Apol 90': 54%
DRC-1; 180'; concentration 2.5
  % inhibition apPOL 180': -3.8%
DRC-1; 180'; concentration 5
  % inhibition apPOL 180': 6%
DRC-1; 180'; concentration 10
  % inhibition apPOL 180': 33%
DRC-1; 180'; concentration 20
  % inhibition apPOL 180': 39%
DRC-1; 180'; concentration 40
  % inhibition apPOL 180': 34%
DRC-1; 180'; concentration 80
  % inhibition apPOL 180': 34%
DRC-2, 5', concentration 2.5
  % inhibition Apo pol 5': 5.33%
DRC-2, 5', concentration 5
  % inhibition Apo pol 5': 20%
DRC-2, 5', concentration 10
  % inhibition Apo pol 5': 36%
DRC-2, 5', concentration 20
  % inhibition Apo pol 5': 45%
DRC-2, 5', concentration 40
  % inhibition Apo pol 5': 43%
DRC-2, 5', concentration 80
  % inhibition Apo pol 5': 30%
DRC-2, 40', concentration 2.5
  % inhibition Apol 40': 4%
DRC-2, 40', concentration 5
  % inhibition Apol 40': 23%
DRC-2, 40', concentration 10
  % inhibition Apol 40': 40%
DRC-2, 40', concentration 20
  % inhibition Apol 40': 54%
DRC-2, 40', concentration 40
  % inhibition Apol 40': 56%
DRC-2, 40', concentration 80
  % inhibition Apol 40': 47%
DRC-2, 90', concentration 2.5
  % inhibition ApPOL 90': 4.38%
DRC-2, 90', concentration 5
  % inhibition ApPOL 90': 23%
DRC-2, 90', concentration 10
  % inhibition ApPOL 90': 39%
DRC-2, 90', concentration 20
  % inhibition ApPOL 90': 54%
DRC-2, 90', concentration 40
  % inhibition ApPOL 90': 55%
DRC-2, 90', concentration 80
  % inhibition ApPOL 90': 48%
DRC-2, 180', concentration 2.5
  % inhibition apPOL 180': 0.809%
DRC-2, 180', concentration 5
  % inhibition apPOL 180': 16%
DRC-2, 180', concentration 10
  % inhibition apPOL 180': 29%
DRC-2, 180', concentration 20
  % inhibition apPOL 180': 45%
DRC-2, 180', concentration 40
  % inhibition apPOL 180': 45%
DRC-2, 180', concentration 80
  % inhibition apPOL 180': 37%
DRC-2; 5'; concentration 20
  % inhibition Apo pol 5': 45%
DRC-2; 40'; concentration 5
  % inhibition Apol 40': 23%
DRC-2; 40'; concentration 20
  % inhibition Apol 40': 54%
DRC-2; 90'; concentration 5
  % inhibition ApPOL 90': 23%
DRC-2; 90'; concentration 10
  % inhibition ApPOL 90': 39%
DRC-2; 90'; concentration 20
  % inhibition ApPOL 90': 54%
DRC-2; 90'; concentration 40
  % inhibition ApPOL 90': 55%
DRC-2; 180'; concentration 5
  % inhibition apPOL 180': 16%
DRC-2; 180'; concentration 20
  % inhibition apPOL 180': 45%
DRC-2; 180'; concentration 40
  % inhibition apPOL 180': 45%
First dose-response; 10'; concentration 80
  % inhibition Apo pol 10': 55%
First dose-response; 90'; concentration 5
  % inhibition Apol 90': 16%
First dose-response; 90'; concentration 80
  % inhibition Apol 90': 54%
First dose-response; 180'; concentration 20
  % inhibition apPOL 180': 39%
First dose-response; 180'; concentration 40
  % inhibition apPOL 180': 34%
First dose-response; 180'; concentration 80
  % inhibition apPOL 180': 34%
Primary screen value, 'DNA Pol' only; 90 min, 10 µM
  DNA Pol: 46

## C#CC(C=CC)OC(=O)c1ccccc1C(=O)O (stereo not shown) [Molecule 61]
Supplemental file 2, sheet IC50 nontoxic compounds; Pf-apPOL
  IC50: 18.3 µM
